Measured values as given in patent US20220282217A1, “COMPOSITIONS AND METHODS FOR PREPARING T CELL COMPOSITIONS AND USES THEREOF” (priority 2019, published 2022).
Where two headings read alike, the source gives them in different places. Where a SMILES comes first, the peptide text is derived from it.

Legend:
HLA-A02.01 [1] = target: HLA-A02.01 (Homo sapiens, UniProt P04439, D140Y/D185E/D98H/E176V/E277Q/G131W/G231S/I119V/I121R/I166T/I218V/L300P/L318F/N151K/N90K/P208A/P217A/Q86G/Q94H/R138H/R169H/T345S); experiment: Class I MHC peptide binding affinity (displacement of radiolabeled reference peptide)
Summary of the method: (§1)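 Peptides compete against a prebound radiolabeled reference on MHCI over 2 days at several concentrations.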

HLA-B07.02 = HLA-B07.02 (Homo sapiens, UniProt P01889); experiment: as above
HLA-A02.01 [2] = target: T1, HLA-A02.01 (Homo sapiens, UniProt P04439, D140Y/D185E/D98H/E176V/E277Q/G131W/G231S/I119V/I121R/I166T/I218V/N151K/N90K/P208A/P217A/Q86G/Q94H/R138H/R169H); experiment: Class I MHC peptide binding stability (pMHC-I dissociation, 125I-labeled light chain); conditions: for Stability (T1/2 (h)): allele A02.01
T1 construct: made in house; host or cells: E. coli

HLA-A01.01 = HLA-A01.01 (Homo sapiens, UniProt P04439, A114D/A174V/A182V/D101N/D185E/E176A/E190D/L180R/Q94H/R68K/S129P/T187R/V100A/V91M/W191G); experiment: Class I MHC peptide binding affinity (displacement of radiolabeled reference peptide)
Summary of the method: as §1

[3] = allele A02.01, read-out: Observed Affinity (IC50, (nM))
[4] = allele A01.01, read-out: Observed Affinity (IC50, (nM))
[5] = Observed Affinity (IC50, (nM)), allele A01.01
[6] = Allele B07.02, read-out: Observed Affinity (IC50, (nM))

CSCC[C@H](NC(=O)[C@H](CC(C)C)NC(=O)[C@H](CCC(N)=O)NC(=O)[C@@H](N)CCSC)C(=O)N1CCC[C@H]1C(=O)N[C@@H](Cc1ccccc1)C(=O)NCC(=O)N[C@@H](CS)C(=O)N[C@@H](CC(C)C)C(=O)O
Kd (HLA-A02.01 [1]; EGFR T790M peptides, HLA allele A02.01, read-out: Affinity): 116 nM | IC50 (HLA-A02.01 [1]; [3]): 166 nM | Kd (HLA-B07.02; EGFR T790M peptides, HLA allele B07.02): 1590 nM | Stability (half-life (hr.)) (HLA-A02.01 [2]; EGFR T790M peptides, HLA allele A02.01): 0.3683 h | Stability (T1/2 (h)) (HLA-A02.01 [2]): 0.4 h

CSCC[C@H](NC(=O)[C@H](CCC(=O)O)NC(=O)[C@H](CCCNC(=N)N)NC(=O)[C@H](CC(C)C)NC(=O)[C@H](Cc1ccc(O)cc1)NC(=O)[C@H](CC(N)=O)NC(=O)[C@H](CC(C)C)NC(=O)[C@H](CC(C)C)NC(=O)[C@@H](N)CO)C(=O)O
IC50 (HLA-A02.01 [1]; BTK C481S peptide, HLA Allele A02.01, read-out: Affinity): 67.7 nM | IC50 (HLA-A02.01 [1]; [3]): 87 nM | IC50 (HLA-B07.02; BTK C481S peptide, HLA Allele B07.02, read-out: Affinity): 866 nM | Stability (half-life (hr.)) (HLA-A02.01 [2]; BTK C481S peptide, HLA Allele A02.01): 3.044 h | Stability (T1/2 (h)) (HLA-A02.01 [2]): 3 h

CC(C)[C@H](NC(=O)[C@H](CCC(=O)O)NC(=O)[C@H](CC(N)=O)NC(=O)[C@H](CO)NC(=O)CN)C(=O)N[C@H](C(=O)N[C@H](C(=O)N[C@@H](CCCNC(=N)N)C(=O)N[C@@H](Cc1ccc(O)cc1)C(=O)O)[C@@H](C)O)[C@@H](C)O (H-GSNEVTTRY-OH; N-terminus and C-terminus assumed)
IC50 (HLA-A01.01; [4]): 606 nM

CC[C@H](C)[C@H](N)C(=O)N[C@@H](CC(C)C)C(=O)N[C@@H](CC(=O)O)C(=O)N[C@H](C(=O)N[C@@H](C)C(=O)NCC(=O)N[C@@H](Cc1c[nH]cn1)C(=O)N[C@@H](CCC(=O)O)C(=O)N[C@@H](CCC(=O)O)C(=O)N[C@@H](Cc1ccc(O)cc1)C(=O)O)[C@@H](C)O (H-ILDTAGHEEY-OH; N-terminus and C-terminus assumed)
IC50 (HLA-A01.01; [5]): 64.2 nM

CC[C@H](C)[C@H](N)C(=O)N[C@@H](CC(C)C)C(=O)N[C@@H](CC(=O)O)C(=O)N[C@H](C(=O)N[C@@H](C)C(=O)NCC(=O)N[C@@H](CC(C)C)C(=O)N[C@@H](CCC(=O)O)C(=O)N[C@@H](CCC(=O)O)C(=O)N[C@@H](Cc1ccc(O)cc1)C(=O)O)[C@@H](C)O (H-ILDTAGLEEY-OH; N-terminus and C-terminus assumed)
IC50 (HLA-A01.01; [5]): 8.6 nM

CC[C@H](C)[C@H](N)C(=O)N[C@@H](CC(C)C)C(=O)N[C@@H](CC(=O)O)C(=O)N[C@H](C(=O)N[C@@H](C)C(=O)NCC(=O)N[C@@H](CCCNC(=N)N)C(=O)N[C@@H](CCC(=O)O)C(=O)N[C@@H](CCC(=O)O)C(=O)N[C@@H](Cc1ccc(O)cc1)C(=O)O)[C@@H](C)O (H-ILDTAGREEY-OH; N-terminus and C-terminus assumed)
IC50 (HLA-A01.01; [5]): 7 nM

CC(C)C[C@H](NC(=O)[C@H](Cc1ccccc1)NC(=O)[C@H](CO)NC(=O)[C@@H](N)CC(C)C)C(=O)N[C@@H](CO)C(=O)N[C@@H](CO)C(=O)N[C@@H](Cc1c[nH]c2ccccc12)C(=O)N[C@@H](CC(=O)O)C(=O)N[C@@H](Cc1ccc(O)cc1)C(=O)O (H-LSFLSSWDY-OH; N-terminus and C-terminus assumed)
IC50 (HLA-A01.01; [4]): 52.9 nM

CC[C@H](C)[C@H](NC(=O)[C@H](CCCCN)NC(=O)[C@H](Cc1ccc(O)cc1)NC(=O)[C@@H](NC(=O)[C@@H](NC(=O)[C@H](CC(=O)O)NC(=O)[C@H](CO)NC(=O)[C@@H](N)CCSC)[C@@H](C)O)[C@@H](C)O)C(=O)N[C@@H](Cc1ccc(O)cc1)C(=O)O (H-MSDTTYKIY-OH; N-terminus and C-terminus assumed)
IC50 (HLA-A01.01): 10.2 nM

CC(C)C[C@H](NC(=O)[C@@H]1CCCN1C(=O)[C@@H]1CCCN1C(=O)[C@@H](NC(=O)[C@@H](NC(=O)[C@H](Cc1c[nH]c2ccccc12)NC(=O)[C@H](CC(C)C)NC(=O)[C@@H](NC(=O)[C@@H]1CCCN1C(=O)[C@@H](N)CCC(N)=O)C(C)C)[C@@H](C)O)[C@@H](C)O)C(=O)O (H-QPVLWTTPPL-OH; N-terminus and C-terminus assumed)
IC50 (HLA-B07.02; [6]): 109 nM

CC(C)C[C@H](NC(=O)[C@@H]1CCCN1C(=O)[C@@H](N)CCCNC(=N)N)C(=O)N[C@@H](CCC(N)=O)C(=O)N[C@H](C(=O)N[C@@H](Cc1c[nH]cn1)C(=O)N[C@H](C(=O)N[C@@H](CC(C)C)C(=O)N1CCC[C@H]1C(=O)N[C@@H](CCC(=O)O)C(=O)O)C(C)C)[C@@H](C)O (H-RPLQTHVLPE-OH; N-terminus and C-terminus assumed)
IC50 (HLA-B07.02; [6]): 2530 nM

CC(C)C[C@H](NC(=O)[C@H](CC(C)C)NC(=O)[C@H](Cc1c[nH]cn1)NC(=O)CNC(=O)[C@H](CCC(N)=O)NC(=O)[C@H](CC(N)=O)NC(=O)[C@H](CCC(N)=O)NC(=O)[C@@H](NC(=O)[C@@H](N)CCCNC(=N)N)C(C)C)C(=O)O (H-RVQNQGHLL-OH; N-terminus and C-terminus assumed)
IC50 (HLA-B07.02; [6]): 826 nM

CC(C)[C@H](NC(=O)[C@H](CCC(=O)O)NC(=O)[C@H](CC(N)=O)NC(=O)[C@H](CO)NC(=O)CNC(=O)[C@@H](N)[C@@H](C)O)C(=O)N[C@H](C(=O)N[C@H](C(=O)N[C@@H](CCCNC(=N)N)C(=O)N[C@@H](Cc1ccc(O)cc1)C(=O)O)[C@@H](C)O)[C@@H](C)O (H-TGSNEVTTRY-OH; N-terminus and C-terminus assumed)
IC50 (HLA-A01.01; [4]): 15500 nM

C[C@H](NC(=O)[C@H](CC(N)=O)NC(=O)[C@@H](NC(=O)[C@@H](N)[C@@H](C)O)[C@@H](C)O)C(=O)N[C@@H](Cc1ccccc1)C(=O)N[C@@H](CO)C(=O)NCC(=O)N[C@@H](CCC(=O)O)C(=O)N[C@@H](Cc1ccc(O)cc1)C(=O)O (H-TTNAFSGEY-OH; N-terminus and C-terminus assumed)
IC50 (HLA-A01.01; [4]): 4.4 nM

CC[C@H](C)[C@H](NC(=O)[C@H](CCCCN)NC(=O)[C@H](Cc1ccc(O)cc1)NC(=O)[C@@H](NC(=O)[C@@H](NC(=O)[C@H](CC(=O)O)NC(=O)[C@H](CO)NC(=O)[C@H](CCSC)NC(=O)[C@@H](N)C(C)C)[C@@H](C)O)[C@@H](C)O)C(=O)N[C@@H](Cc1ccc(O)cc1)C(=O)O (H-VMSDTTYKIY-OH; N-terminus and C-terminus assumed)
IC50 (HLA-A01.01): 376 nM

CC(C)C[C@H](NC(=O)[C@H](CC(=O)O)NC(=O)[C@H](Cc1ccccc1)NC(=O)[C@@H]1CCCN1C(=O)[C@@H](NC(=O)[C@H](C)NC(=O)[C@@H]1CCCN1C(=O)[C@@H](N)C(C)C)C(C)C)C(=O)N[C@@H](Cc1c[nH]cn1)C(=O)N[C@@H](Cc1ccccc1)C(=O)O (H-VPAVPFDLHF-OH; N-terminus and C-terminus assumed)
IC50 (HLA-B07.02; [6]): 2110 nM

CSCC[C@H](NC(=O)[C@H](CCC(=O)O)NC(=O)[C@H](CC(C)C)NC(=O)[C@H](CC(C)C)NC(=O)[C@H](CC(C)C)NC(=O)CNC(=O)[C@H](Cc1ccc(O)cc1)NC(=O)[C@H](CC(C)C)NC(=O)[C@@H]1CCCN1C(=O)[C@@H](N)C(C)C)C(=O)O (H-VPLYGLLLEM-OH; N-terminus and C-terminus assumed)
IC50 (HLA-B07.02; [6]): 27.9 nM

CC(C)C[C@H](NC(=O)CNC(=O)[C@H](CO)NC(=O)[C@H](CC(=O)O)NC(=O)[C@H](CCCCN)NC(=O)[C@H](CO)NC(=O)[C@H](Cc1ccc(O)cc1)NC(=O)[C@H](C)NC(=O)[C@@H]1CCCN1C(=O)[C@@H](N)Cc1ccc(O)cc1)C(=O)O (H-YPAYSKDSGL-OH; N-terminus and C-terminus assumed)
IC50 (HLA-B07.02; [6]): 79.5 nM

CC(C)C[C@H](NC(=O)[C@H](C)NC(=O)[C@H](CC(C)C)NC(=O)[C@H](Cc1c[nH]cn1)NC(=O)[C@@H]1CCCN1C(=O)[C@H](CCC(=O)O)NC(=O)[C@@H]1CCCN1C(=O)[C@H](CC(C)C)NC(=O)[C@@H](NC(=O)[C@@H](N)Cc1c[nH]cn1)C(C)C)C(=O)O [HVLPEPHLAL] (H-HVLPEPHLAL-OH; N-terminus and C-terminus assumed)
IC50 (HLA-B07.02; [6]): 1330 nM
